Source: patent US20110189266A1, “CORTICOSTEROID MICROVESICLES FOR TREATMENT OF CARDIOVASCULAR DISEASES” (MOUNT SINAI SCHOOL OF MEDICINE OF NEW YORK UNIVERSITY, priority 2008, published 2011)

Legend:
[1] = system: neo-intimal formation; conditions: prednisone- and Taxus stent-treated animals; Ribichini et al 2007; cited from earlier work
[2] = system: atherosclerotic plaque permeability, aortic wall; assay: Dynamic contrast enhanced MRI (DCE-MRI) to quantify changes in plaque permeability; format: in vivo, New Zealand White (NZW) rabbits; conditions: before vs two days after administration
[3] = system: atherosclerotic plaques of the abdominal aorta; assay: 18F-FDG PET/CT of the abdominal aorta (mean SUV), rabbit model of atherosclerosis; format: in vivo, New Zealand White (NZW) rabbits; conditions: single i.v. injection 15 mg/kg
Experimental: Seventeen male New Zealand White (NZW) rabbits (mean age 7 months; mean weight 3.5±0.2 kg; Covance) were included in this study. Aortic atherosclerotic plaques were induced in 15 NZW rabbits, through a well established model^18, by a combination of 7 months of high cholesterol diet (4.7% palm oil and 0.3% cholesterol-enriched diet; Research Diet Inc.) and a repeated balloon injury of the aorta (two weeks and six weeks after starting the high cholesterol diet). Aortic injury was performed from the aortic arch to the iliac bifurcation with a 4F Fogarty embolectomy catheter introduced through the femoral artery. […]
PET/CT images were analyzed on a Xeleris workstation. […] SUV was calculated by dividing the tissue concentration (kBq/mL) by the injected dose per gram of body weight (kBq/g).
The scans allow the quantification of the standard uptake value (SUV) of ^18F-FDG in the abdominal aorta. The SUV is the decay-corrected tissue concentration of FDG (in kBq/g), corrected for injected FDG dose and body weight (in kBq/g), and is a well-recognized method for quantification of FDG PET data. Prior to start of treatment, the aortas of six atherosclerotic rabbits and two non-atherosclerotic rabbits were measured to establish mean SUV levels of atherosclerotic and non-atherosclerotic rabbits.

Compound	neo-intimal formation [1]	change of DCE-MRI area under the curve (AUC) of the aortic wall [2]	SUV differences between pre, and two and seven days post treatment [3]	SUV change one week post-treatment ([3]; one week post-treatment vs pre, p=0.006 (liposomal), p=0.40 (free))
C[C@]12C=CC(=O)C=C1CC[C@@H]1[C@@H]2C(=O)C[C@@]2(C)[C@H]1CC[C@]2(O)C(=O)CO [prednisone]	reduced neo-intimal formation			
prednisolone phosphate disodium salt [free circulating glucocorticoids]		not	no significant SUV differences	no SUV reduction
